From patent US12201625B2, “Single nucleotide polymorphic alleles of human DP-2 gene for detection of susceptibility to hair growth inhibition by PGD2” (THE TRUSTEES OF THE UNIVERSITY OF PENNSYLVANIA, priority 2015, dated 2025)

How the values were obtained:
mouse hair follicles = details: cited from earlier work
human hair follicles [1] = details: cited from earlier work
human hair follicles [2] = test: Hair follicle organ (explant) culture, growth over seven days; assay type: cell-based
Source text: Tissue: Scalp was obtained from normally discarded human skin samples from CHTN and from men and women undergoing hair transplantation (IRB exempted study Protocol #818053). Hair follicle organ culture: Hair follicles were microdissected from discarded tissues from hair transplant patients and cultured for seven days as described by Philpott et al. (J. Dermatol. Sci. Suppl: S55-72. (1994)) in the presence or absence of PGD2 and/or DP-2 antagonist, with a change of culture medium every two days. Hair follicles were photographed at the beginning and end of the culture period. Hair follicle growth was measured from the photographs using Image J software.

C57BL mice = test: Topical application to depilated back skin of mice, hair cycle stage and hair length; assay type: in vivo, mouse
Experimental: Animal studies: The back skins of C57BL mice at 6-7 week were depilated. DP-2 antagonists were dissolved in 95% EtOH/2% Glycerol/3% PEG. 100 μL of each compound was spread on the shaved back skin once daily for 2 weeks starting from day 8 post depilation. At day 22 post depilation hair shafts were plucked for hair length measurement and skins were harvested for histological assessment of hair cycle stages.

[3] = test system: hair follicle keratinocytes; test: Immunofluorescence staining of cultured hair follicles for Ki67 and active caspase 3; assay type: cell-based, human
Experimental: Immunostaining: Immunofluorescence analysis with anti-Ki67 and anti-Caspase-3 was performed on cryosections of cultured hair follicles or whole mount hair follicles fixed in 4% PFA. Images were photographed with Leica fluorescence microscope.

[4] = topical once per day for two weeks, day 22 post depilation

| Structure (SMILES) | hair growth (mouse hair follicles) | hair growth (human hair follicles [1]) | anti-PGD2 activity at high doses (human hair follicles [2]; 99.5% pure preparation of AM211, FIG. 3B) | rescue of hair follicles from growth inhibition by PGD2 (human hair follicles [2]; AM211 at 10 nM, PGD2 10 μM, 7 days) | anti-PGD2 effect at high doses (human hair follicles [2]; AM211 preparation purified to 95% homogeneity, FIG. 3A) | hair follicles entering catagen (hair cycle stage) (C57BL mice; topical once per day for two weeks from day 8 post depilation, harvested day 22) | hair shaft length (C57BL mice; [4]) | skin area with hair follicles continuing to grow (C57BL mice; [4]) | patients whose hair follicles exhibited PGD2-mediated growth inhibition (human hair follicles [2]; Group 1, of 35 patients tested) | patients whose hair follicles exhibited PGD2-mediated growth inhibition (human hair follicles [2]; Group 2, of 65 patients tested) | patients whose hair follicles exhibited PGD2-mediated growth inhibition (human hair follicles [2]; Groups 1 and 2 combined, 100 samples) | growth of human hair follicles in explant culture (human hair follicles [2]; PGD2 10 μM added to culture medium, 7 days) | inhibitory effect on hair growth, dose dependence (human hair follicles [2]; explant culture, FIG. 1B) | apoptosis of hair follicle keratinocytes (active caspase 3) [3] | proliferation of hair follicle keratinocytes (Ki67) [3] |
| --- | --- | --- | --- | --- | --- | --- | --- | --- | --- | --- | --- | --- | --- | --- | --- |
| CCCCC/C=C/C=C1/C(=O)C=C[C@@H]1C/C=C\CCCC(=O)O [15-dPGJ2, 15-deoxy-D12,14-prostaglandin J2] | inhibit hair growth | inhibit hair growth | – | – | – | – | – | – | – | – | – | – | – | – | – |
| CCN(Cc1cc(C(F)(F)F)ccc1-c1cc(CC(=O)O)ccc1OC)C(=O)NCc1ccccc1 [AM211] | – | – | sustained anti-PGD2 activity | rescued hair follicles from the inhibition by PGD2 | reduction in anti-PGD2 effect | dose-dependent delay in hair follicles entering catagen | longer hair shaft | larger area with hair follicles continuing to grow | – | – | – | – | – | – | – |
| CCCCC[C@H](O)/C=C/[C@H]1C(=O)C[C@H](O)[C@@H]1C/C=C\CCCC(=O)O [PGD2, prostaglandin D2] | inhibit hair growth | inhibit hair growth | – | – | – | – | – | – | 21 | 31 | 52 | severely inhibited | dose-dependent manner | promoted apoptosis | suppressed proliferation |
